Marks after values point to notes of the source that are not given here.
Legend:
[1] = tested on: Carrageenan-induced mechanical hyperalgesia; experiment: Carrageenan-induced mechanical hyperalgesia, paw pressure (Randall-Sellito) test; format: in vivo, rats; conditions: for Effect on Carrageenan-induced mechanical hyperalgesia: all doses tested (10, 20, 40 mg/kg i.p.)
Method: Carrageenan-induced mechanical hvderalcesia in rats was induced by subplantar injection of a 0.1 ml of a 2% carrageenan suspension and measured 3 h afterwards by the paw pressure (Randall-Sellito) test.
(§1) Drugs and experimental design: SPM 927 and GBP were suspended in 1% methylcellulose and administered i.p. at doses of 10 mg/kg, 20 mg/kg and 40 mg/kg. Pre-treatment time was 30 min before pain measurement. One group of animals served as controls and consequently received an injection of solvent (10 ml/kg) and another group of animals received a reference compound (Carrageenan test: 10 mg/kg indomethacin; Formalin test: 10 mg/kg morphine). Each compound was tested in a separate experiment and each experiment included a control and a reference group. 10 rats per group were used in the Carrageenan test and 6 mice per group in the formalin test.

[2] = tested on: formalin-induced nociception (paw licking); experiment: Subchronic inflammatory nociception in mice (formalin test); format: in vivo; conditions: for Nociceptive response induced by formalin: 10, 20, 40 mg/kg i.p.; for nociceptive threshold [s]: late phase (20-30 min), 10 mg/kg i.p.
Method: Subchronic inflammatory nocicoetion in mice was induced by the subplantar injection of formalin (0.02 ml of a 5% solution). Nociceptive behaviour (paw licking) was measured and quantified between 0 and 5 min (acute pain) and between 20 and 30 min (subchronic inflammatory pain) after formalin.
as §1

[3] = tested on: formalin-induced tonic inflammatory nociceptive behaviour; experiment: Formalin test, rat (weighted behavioural scoring); format: in vivo
Method: The formalin test is a chemically-induced tonic pain model in which biphasic changes of nociceptive behaviour are assessed and spinal/supraspinal plasticity of nociception is considered as a molecular basis for neuropathic pain particularly during the second (=late) phase of the test, during which most clinically used drugs against neuropathic pain are active.
The compound was tested for anti-nociceptive properties by use of the weighted behavioural scoring method: Freely moving animals underwent observational assessment of the position of the left hind paw according to a rating score scaled 0-3 before and 10, 20, 30 and 40 min after injection of 0.05 ml of sterile 2.5% formalin under the skin on the dorsal surface of the paw.

[4] = tested on: spontaneous pain induced by unilateral chronic constriction injury; experiment: Chronic constriction injury (CCI, Bennett-model), spontaneous pain; format: in vivo, rat; conditions: 5-40 mg/kg i.p.
Method: (§2) The effectiveness of harkoseride in reducing spontaneous chronic pain, mechanical allodynia, and thermal hyperalgesia was tested using the chronic constriction injury (CCI) model of peripheral neuropathy, one of the best characterised in vivo animal models used to study chronic pain due to peripheral nerve injury. In this model, loose ligatures are placed around the sciatic nerve, which produces axonal swelling and a partial deafferentation manifested as a significant but incomplete loss of axons in the distal portion of the peripheral nerve. One of the prominent behaviours seen following sciatic nerve ligation is the appearance of hind paw guarding, thought to be an indication of an ongoing spontaneous chronic pain. Support for this idea is derived from reports of increased spinal cord neural activity, and increased spontaneous neuronal discharge in spinothalamic tract neurons and in the ventrobasal thalamus in the absence of overt peripheral stimulation. In addition to the appearance of spontaneous pain behaviours, several abnormalities in stimulus evoked pain occur as a result of CCI, including thermal hyperalgesia and mechanical allodynia. […]
Spontaneous pain (ongoing pain without an apparent external stimulus) of the ligated paw was assessed for 5 min following a 10 min acclimation period by use of a rating score (weighted behaviour score scaled 0-5).

[5] = tested on: chronic constriction injury-induced thermal hyperalgesia; experiment: Chronic constriction injury (CCI) model, thermal hyperalgesia; format: in vivo, rat; conditions: 5-40 mg/kg i.p.
Method: as §2
Thermal hyperalgesia was assessed by means of withdrawal latency in response to radiant heat applied to the subplantar surface of the ligated rat hind paw. […]

[6] = tested on: mechanical allodynia induced by unilateral nerve ligation; experiment: Chronic constriction injury (CCI) model, mechanical allodynia (Von Frey); format: in vivo, rat; conditions: 5-40 mg/kg i.p.
Method: as §2
Mechanical sensitivity and allodynia of the ligated rat hind paw was quantified by brisk foot withdrawal in response to normally innocuous mechanical stimuli as described previously. […]

[7] = tested on: acute spinal thermal nociception; experiment: Tail flick test, rat; format: in vivo
From the text: Harkoseride was additionally tested for potential activity in acute spinal thermal nociception using the tail flick test. In this model of acute thermal spinal/reflex hyperalgesia radiant heat is applied to the animal's tail approximately 2 cm from the tip and time latency for withdrawal reaction is automatically assessed by an algometer, a defined maximal stimulus time prevents tissue damage. This test is widely used as an assay for the anti-nociceptive efficacy of pharmacological agents and is highly predictive of acute analgesic efficacy in humans.
Results for 20 and 40 mg/kg harkoseride i.p are shown in table 5 [percent anti-nociception, calculated as [{(post-drug latency)−(pre-drug-latency)}/{(max. latency)−(pre-drug latency)}×100]±SEM, n=12/group]. A baseline or pre-drug tail-flick latency was determined by averaging 5 consecutive measurements taken 2 minutes apart. Vehicle (sterile water 0.04 ml/10 g body weight) or harkoseride were then administered and tail flick latencies recorded at 10-minute intervals for the next 60 minutes.

[8] = tested on: neuropathic pain (CHUNG), tactile stimulation; experiment: Neuropathic pain (CHUNG) test, tactile stimulation on lesioned paw; format: in vivo, rat; conditions: tactile and thermal stimulation
From the text: The following Tables 8 and 9 show the effects of harkoseride (hereinafter referred to as SPM 927), carbamazepine, levetiracetam, gabapentin and morphine in the neuropathic pain (CHUNG) test in the rat. Eight (8) rats per group were used.

Row | Structure (SMILES) | Effect on Carrageenan-induced mechanical hyperalgesia [1] | Nociceptive response induced by formalin [2] | nociceptive threshold [s] ([2]; GBP experiment) | nociceptive threshold [s] ([2]; SPM 927 experiment) | Formalin-induced tonic inflammatory nociceptive behaviour ([3]; i.p. just prior to formalin injection) | Efficacy in the late phase of the rat formalin test ([3]; late phase) | Level of spontaneous pain induced by unilateral chronic constriction injury [4] | Chronic constriction injury-induced thermal hyperalgesia [5] | Intensity of mechanical allodynia induced by unilateral nerve ligation [6] | Effect on the latency of the tail flick reflex ([7]; 20 and 40 mg/kg i.p.) | Anti-nociceptive effect detectable in the tail-flick test ([7]; rat, in vivo) | Antinociceptive effect relative to reference compound ([1]; vs 10 mg/kg indomethacin) | Efficacy on formalin-induced nociception, similar to that of morphine ([2]; mouse, in vivo) | Potency compared with the reference compounds in the CHUNG test [8]
1 | NCC1(CC(=O)O)CCCCC1 [GBP, gabapentin, reference compound] | no significant effect | slightly but not significantly inhibited |  |  |  |  |  |  |  |  |  |  |  | 
2 | CN1CC[C@]23c4c5ccc(O)c4O[C@H]2[C@@H](O)C=C[C@H]3[C@H]1C5 [Morphine, morphine] |  |  | 0 ± 0^a s | 10 ± 8^a s |  |  |  |  |  |  |  |  |  | 
3 | COC[C@@H](NC(C)=O)C(=O)NCc1ccccc1 [SPM 927, (R)-2-Acetamido-N-benzyl-3-methoxypropionamide] | full reversal | dose dependently suppressed |  |  | dose dependant reduction | Significant and dose dependent efficacy | did not change | dose dependently reduced | dose dependently reduced | little or no effect | no anti-nociceptive effect | comparable to that of the reference compound Indomethacin | near complete reversal | minimum comparable, but usually more potent than the reference compounds
